Results reported in patent US5151413A (American Home Products Corporation, priority 1991, dated 1992).
Values after ≈ are worked out from the molar mass of the structure shown. Like-named read-outs stand apart in the source and are kept apart here.

How the values were obtained:
[1] = system: thymocyte proliferation (cells from the thymus of normal BALB/c mice); test: comitogen-induced thymocyte proliferation procedure (LAF); type: cell-based; details: read-out: LAF IC50
Procedure: Immunosuppressive activity was evaluated in an in vitro standard pharmacological test procedure to measure lymphocyte proliferation (LAF) and in an in vivo procedure in which the survival time of a pinch skin graft was evaluated.
The comitogen-induced thymocyte proliferation procedure (LAF) was used as an in vitro measure of the immunosuppressive effects of representative compounds. Briefly, cells from the thymus of normal BALB/c mice are cultured for 72 hours with PHA and IL-1 and pulsed with tritiated thymidine during the last six hours. […] Cells are harvested and incorporated; radioactivity is determined. Inhibition of lymphoproliferation is assessed in percent change in counts per minute from non-drug treated controls. […] [formula]

[2] = system: pinch skin grafts from male DBA/2 donors transplanted to male BALB/c recipients; test: survival time of pinch skin grafts (in vivo); parameters: species or system BALB/c mice; details: intraperitoneal; DBA/2 donors to BALB/c recipients
Procedure: The recipients are treated with either varying concentrations of cyclosporin A as test control or the test compound, intraperitoneally. Untreated recipients serve as rejection control. The graft is monitored daily and observations are recorded until the graft becomes dry and forms a blackened scab. This is considered as the rejection day.

[3] = system: Candida albicans ATCC 10231; test: Anti-Candida activity, plate test procedure, strain ATCC 10231; type: cell-based; details: ATCC10231, read-out: Anti-Candida Activity, Minimal Inhibitory Concentration (MIC)
Procedure: (§1) Antifungal activity of the compounds of this invention was measured against 5 strains of Candida albicans using a plate test procedure for measurement of inhibition. The following represents the typical procedure used. Compound to be tested was placed on sterile dried 1/4" plate disks, and allowed to dry. Agar plates were seeded with fungi and allowed to solidify. The impregnated disks were placed on the seeded Agar surface and incubated for the time required for the particular culture. Results are expressed in MIC (μg/ml) to inhibit growth.

[4] = system: Candida albicans ATCC 38246; test: Anti-Candida activity, plate test procedure, strain ATCC 38246; type: cell-based; details: ATCC38246, read-out: Anti-Candida Activity, Minimal Inhibitory Concentration (MIC)
Procedure: as §1

[5] = system: Candida albicans ATCC 38247; test: Anti-Candida activity, plate test procedure, strain ATCC 38247; type: cell-based; details: ATCC38247, read-out: Anti-Candida Activity, Minimal Inhibitory Concentration (MIC)
Procedure: as §1

[6] = system: Candida albicans ATCC 38248; test: Anti-Candida activity, plate test procedure, strain ATCC 38248; type: cell-based; details: ATCC38248, read-out: Anti-Candida Activity, Minimal Inhibitory Concentration (MIC)
Procedure: as §1

[7] = system: Candida albicans 3669; test: Anti-Candida activity, plate test procedure, strain 3669; type: cell-based; details: read-out: Anti-Candida Activity, Minimal Inhibitory Concentration (MIC)
Procedure: as §1

[8] = system: Candida albicans; details: especially against Candida albicans; cited from earlier work
[9] = system: immune response; details: cited from earlier work
[10] = Mus musculus, Thymocyte, thymocytes cultured 72 hours with PHA and IL-1, tritiated thymidine last six hours

Molecule | IC50 [1, 10] | Skin Graft, mean survival days [2] | MIC [3] | MIC [4] | MIC [5] | MIC [6] | MIC [7] | IC50 ([1]; thymocytes cultured 72 hours with PHA and IL-1, tritiated thymidine last six hours) | IC50 ([1]; Mus musculus, Thymocyte) | antifungal activity (in words) [8] | inhibition of the immune response (in words) [9]
CO[C@H]1C[C@@H]2CC[C@@H](C)[C@@](O)(O2)C(=O)C(=O)N2CCCC[C@H]2C(=O)O[C@H]([C@H](C)C[C@@H]2CC[C@@H](O)[C@H](OC)C2)CC(=O)[C@H](C)/C=C(\C)[C@@H](OC(C)(C)OC)[C@@H](OC)C(=O)[C@H](C)C[C@H](C)/C=C/C=C/C=C/1C [Example 1, 31-[O-(1-Methoxy-1-methyl)ethyl]rapamycin] | 3.2 nM | 10.7 days | 0.025 µg/mL (≈ 0.0253 µM) | 0.4 µg/mL (≈ 0.406 µM) | 0.025 µg/mL (≈ 0.0253 µM) | 0.1 µg/mL (≈ 0.101 µM) | 0.4 µg/mL (≈ 0.406 µM) |  |  |  | 
CO[C@H]1C[C@@H]2CC[C@@H](C)[C@@](O)(O2)C(=O)C(=O)N2CCCC[C@H]2C(=O)O[C@H]([C@H](C)C[C@@H]2CC[C@@H](OC(C)(C)OC)[C@H](OC)C2)CC(=O)[C@H](C)/C=C(\C)[C@@H](O)[C@@H](OC)C(=O)[C@H](C)C[C@H](C)/C=C/C=C/C=C/1C [Example 2, 42-[O-(1-methoxy-1-methyl)ethyl]rapamycin] | 8.3 nM |  | 0.025 µg/mL (≈ 0.0253 µM) | 0.4 µg/mL (≈ 0.406 µM) | 0.025 µg/mL (≈ 0.0253 µM) | 0.1 µg/mL (≈ 0.101 µM) | 0.2 µg/mL (≈ 0.203 µM) |  |  |  | 
31-[O-[2-(trimethylsilyl)ethoxylmethyl]rapamycin [Example 3] |  |  |  |  |  |  |  | 17.2 nM |  |  | 
CO[C@H]1C[C@@H]2CC[C@@H](C)[C@@](O)(O2)C(=O)C(=O)N2CCCC[C@H]2C(=O)O[C@H]([C@H](C)C[C@@H]2CC[C@@H](O)[C@H](OC)C2)CC(=O)[C@H](C)/C=C(\C)[C@@H](O)[C@@H](OC)C(=O)[C@H](C)C[C@H](C)/C=C/C=C/C=C/1C [Rapamycin, reference compound] |  |  | 0.03 µg/mL (≈ 0.0328 µM) | 0.25 µg/mL (≈ 0.273 µM) | 0.03 µg/mL (≈ 0.0328 µM) | 0.006 µg/mL (≈ 0.00656 µM) | 0.25 µg/mL (≈ 0.273 µM) |  | 3.3 to 5.8 nM | profound antifungal activity | inhibit the immune response
